Assay [1] relates to female Aedes aegypti mosquitoes. Put plainly: in vitro membrane repellency test, probing of blood-filled wells. Type of assay: in vivo. As to conditions: for Mean percentage repellency as calculated from the ANOVA: versus IPA control. On the procedure: (§1) Approximately 250 female Aedes aegypti mosquitoes were introduced into a chamber containing 5 wells, each covered by a Baudruche (animal intestine) membrane. Wells were filled with bovine blood, containing sodium citrate (to prevent clotting) and ATP (72 mg ATP disodium salt per 26 ml of blood), and heated to 37° C. A volume of 25 μl of isopropyl alcohol, containing one of the test specimens shown in Table 2, was applied to each membrane.
(§2) After 5 min, 4 day-old female mosquitoes were added to the chamber. The number of mosquitoes probing the membranes for each treatment was recorded at 2 min intervals over 20 min. Each datum represents the mean of three replicate experiments.
The dihydronepetalactone prepared in Example 4, Formula 4, was tested for repellency against Aedes aegypti mosquitoes essentially as described in Example 3. The experimental design is summarized in Table 6, and all data presented is from five replicate experiments.
(§3) Percentage repellency was calculated for each repellent treatment at each observation time using the following equation: %Repellency=100−[(T/C)×100] where: • T=the mean number of mosquitoes probing a treated well for that replicate at time tx • C=the mean number of mosquitoes probing the IPA control well at time tx The resulting percentages were then arcsine transformed and an ANOVA was conducted using the calculated repellency from all five replicates. Multiple comparisons of means were conducted using the Student-Newman-Keuls test. The mean arcsines from ANOVA were then converted back into percentages.

Assay [2] concerns stable flies (Stomoxys calcitrans). Put plainly: in vitro membrane repellency test against stable flies. Type of assay: in vivo. The settings on record: 1% (w/v); for Mean Number of Landings (SEM): 20 minute test; for Mean Number of Landings (SEM) / Mean percentage repellency as calculated from the ANOVA: five replicates; for Mean percentage repellency as calculated from the ANOVA: versus IPA control. On the procedure:
as §1, §2, §3
DHN derived from hydrogenation of trans,cis-nepetalactone (consisting principally of 1S,9S,5R,6R-5,9-dimethyl-3-20 oxabicyclo[4.3.0]nonan-2-one; Formula 4), designated “Experimental Sample #1”, and the mixture of dihydronepetalactones prepared according to Example 2 (designated Experimental Sample #2; mDHN), were tested for repellency against Stomoxys calcitrans, essentially as described in Example 3. The DHN used here differed from that prepared in Example 4 in that it was derived from hydrogenation (using a Pd/SrCO3 catalyst) of trans,cis-nepetalactone crystallized from commercial oil (Berjé, NJ). In these experiments, an additional positive control compound was included, namely p-menthane-3,8-diol (PMD), obtained from Takasago International Corp. (USA), Rockleigh, N.J. The experimental design is summarized in Table 10, and all data presented is an average of five replicate experiments.

Assay [3] relates to unfed adult female A. albimanus. The experiment in a line: in vitro membrane repellency test against anopheles mosquitoes. Type of assay: in vivo, Anopheles albimanus. The settings on record: 1% (w/v); for Mean Number of Probes (SEM): 20 minute test; for Mean Number of Probes (SEM) / Mean percentage repellency as calculated from the ANOVA: five replicates; for Mean percentage repellency as calculated from the ANOVA: versus IPA control. On the procedure: as §1, §2, §3
DHN derived from hydrogenation of trans,cis-nepetalactone (consisting principally of 1S,9S,5R,6R-5,9-dimethyl-3-oxabicyclo[4.3.0]nonan-2-one; Formula 4) designated “Experimental Sample #1”, and the mixture of dihydronepetalactones prepared according to Example 2 (designated as “Experimental Sample #2”; mDHN) were tested for repellency against one hundred unfed adult female A. albimanus, essentially as described in Example 3. The DHN used here differed from that prepared in Example 4 in that it was derived from hydrogenation (using a Pd/SrCO3 catalyst) of trans,cis-nepetalactone crystallized from commercial oil (Berjé, Bloomfield, N.J.). PMD was again included as a further control. The experimental design is summarized in Table 13, and all data presented is the average of five replicate experiments.

The subject of assay [4] is deer tick Ixodes scapularis. The experiment in a line: tick repellency on forearms of human volunteers. Type of assay: in vivo. As to conditions: for statistical comparison of protection times (ANOVA): 30% (w/v); for Mean complete protection time (SEM): 30% (w/v) in isopropanol, 25 μl topically on 4 cm circle. The method, then: A volume of 25 μl of each compound (30% (w/v) in isopropanol) was applied within 4 cm diameter circles drawn on the left forearms of six male human volunteers. Each volunteer had two repellents applied individually within two circles on this forearm; a single 4 cm diameter circle drawn on the other arm was left untreated to act as a control for tick attractiveness. Laboratory-reared unfed nymphs of the deer tick Ixodes scapularis were brought within 1 mm of the untreated circles on cotton buds (Q-tip®). If normal questing behavior was observed, and/or the insect crawled onto the untreated area, it was deemed qualified and then presented to a treated area. A qualified tick which quested at or crawled onto the treated area within 60 s was recorded as having not been repelled. […] Additionally, a qualified tick that crawled onto the treated area but fell off within an additional 60 s was recorded as repelled. Each volunteer had 5 qualified ticks offered to each treated circle at approximately hourly intervals. Exposures continued until 3 out of any group of 5 offered ticks were deemed ‘attracted’. The first non-repelled tick was defined as the first attracted tick which was followed by a second attracted tick within the same or following exposure period. The time of the first confirmed attracted tick was deemed to be the time at which complete repellency ‘broke down’ for that volunteer.

The subject of assay [5] is female Anopheles albimanus mosquitoes. Put plainly: mosquito repellency on forearms of human volunteers (test cage). Type of assay: in vivo. As to conditions: for Mean complete protection time (h) (SEM): 1.0 ml on 250 cm^2 forearm. The method, then:
The DHN derived from hydrogenation of trans,cis-nepetalactone (consisting principally of 1S,9S,5R,6R-5,9-dimethyl-3-oxabicyclo[4.3.0]nonan-2-one; Formula 4), prepared as in Example 7, and the mixture of dihydronepetalactones prepared according to Example 2, were tested for repellency against A. albimanus, with DEET included in the test as a positive control, using adult human volunteers. Test cages (2×2×2 feet) with two sleeved entry ports on each of two opposite sides were used, with a hand rest in the center. The sides and top were screened and the base was equipped with a mirror to facilitate observations. Two hundred adult female mosquitoes, which had never received a blood meal and which had been deprived of their normal diet of 10% sucrose 24 h prior to use, were released into the test cage. Each volunteer was pre-qualified as attractive through having 10 insects land on their untreated forearms within 30 s of insertion into the cage.
A volume of 1.0 ml of each compound (either 5% or 10% (w/v) in isopropanol) was applied to 250 cm^2 areas on the forearms of six male human volunteers, the remainder of the limbs having been made inaccessible to insects. Each volunteer had different repellents applied individually onto each forearm. After allowing the applied repellents to dry for 30 min, the forearms were placed into the test cage for 5 min periods at 30 min intervals, and the number of mosquitoes probing or biting during each exposure period recorded. Breakdown of repellency was recorded for each repellent on each volunteer. Breakdown was defined as the time at which the first confirmed bite occurred; the first confirmed bite was defined as a bite which was followed by a second bite either within the same or the next exposure period. The data is presented in Table 17 as mean complete protection time.

Assay [6] concerns Monomorium destructor ants. The settings on record: after 25 seconds of exposure to vapors; cited from earlier work.
[7] abbreviates: 1% (w/v), 20 minute observation period, Example 5, five replicates.
Setting [8] is: 1% (w/v), Example 5, five replicates.

Data on four compounds can be found in US8633325B2, “Method for making insect repellent composition” (E I du Pont de Nemours and Company, priority 2002, dated 2014).

“And” between values parts separate entries of the source, which are not always exact repeats. Identical values can stand only once.

As for `CCN(CC)C(=O)c1cccc(C)c1` [DEET, N,N-diethyl-m-toluamide], the “Mean Time (min) (SEM) to "First probe"” value in assay [1] (1% (w/v) in isopropyl alcohol, 25 μl on membrane, Example 3, three replicates) was 12 min and 12.0 (0.0) min; in assay [1] (setting [8]), 14.8 min and 14.8 (3.2) min. Further, the “Mean Number of Probes (SEM)” value is 4.8 (3.2) in assay [1] (setting [7]); 4.55 and 4.55 (0.29) in assay [1] (1% (w/v), over 20 min, Example 3, three replicates); 50.4 (13.01) in assay [3]. In addition, the “time until mosquito probing initiated (probing density over time, FIG. 9)” value in assay [1] (1% (w/v), Example 5) is 6 min. In addition, the “Mean percentage repellency as calculated from the ANOVA” value in assay [1] (setting [8]) is reported as 92.4%; in assay [2], 55.5%; in assay [3], 13.3%. Besides, the “repellency comparison between treatments (ANOVA)” value in assay [2] was “performed statistically equally well”; in assay [3], “statistically equal in efficacy”. For the same compound, in assay [2], the “Mean Number of Landings (SEM)” value was 17.8 (4.96). The “statistical comparison of protection times (ANOVA)” value in assay [4] is reported as “statistically indistinguishable in the longevity of their repellency”. For the same compound, in assay [4], the “Mean complete protection time (SEM)” value was 124 min and 124.0 (69.95) min. Further, the “Mean complete protection time (h) (SEM)” value in assay [5] (5% (w/v) in isopropanol) is 4.0 (0.5) h; in assay [5] (10% (w/v) in isopropanol) it was 6.2 (0.63) h.

`C[C@H]1COC(=O)[C@@H]2[C@@H]1CC[C@@H]2C` [DHN, (1S,9S,5R,6R)-5,9-dimethyl-3-oxabicyclo[4.3.0]nonan-2-one]: the “Mean Number of Probes (SEM)” value in assay [1] (0.2% (w/v), 20 minute observation period, Example 5, five replicates) was 23.2 (5.97); in assay [1] (0.5% (w/v), 20 minute observation period, Example 5, five replicates), 16.2 (5.49); in assay [1] (setting [7]), 4.0 (2.16); in assay [3], 38.0 (9.71). Moreover, the “Mean Time (min) (SEM) to "First probe"” value in assay [1] (0.2% (w/v), Example 5, five replicates) is 8.4 (1.16) min; in assay [1] (0.2% (w/v), Example 5, five replicates, listed as dihydronepetalactone) it was 8.4 min; in assay [1] (0.5% (w/v), Example 5, five replicates) it was 9.6 (2.48) min; in assay [1] (0.5% (w/v), Example 5, five replicates, listed as dihydronepetalactone) it was 9.6 min; in assay [1] (setting [8]), 16.0 (2.09) min; in assay [1] (1% (w/v), Example 5, five replicates, listed as Dihydronepetalactone), “approximately 16 min”. For the same compound, the “Mean percentage repellency as calculated from the ANOVA” value in assay [1] (0.5% (w/v), Example 5) is listed as 66.7%; in assay [1] (setting [8]), 96.1%; in assay [2] it was 43.2%; in assay [3], 32.9%. In assay [1] (1% (w/v), Example 5), the “time until mosquito probing initiated (probing density over time, FIG. 9)” value amounted to 10 min. Further, the “repellency rank and statistical comparison with 1% DEET” value in assay [1] (1% (w/v), Example 5, ANOVA, Student-Newman-Keuls) was “ranked first in repellency, and was statistically indistinguishable from 1% DEET”. Moreover, the “repellency comparison between treatments (ANOVA)” value is “performed statistically equally well” in assay [2] and “statistically equal to DEET” in assay [3]. The “Mean Number of Landings (SEM)” value in assay [2] is reported as 21.2 (3.35). Besides, the “statistical comparison of protection times (ANOVA)” value in assay [4] is listed as “statistically indistinguishable in the longevity of their repellency”; in assay [5] (5% and 10% (w/v)), “provided lesser protection times”. In addition, the “Mean complete protection time (SEM)” value in assay [4] is 109 min and 109.0 (58.64) min. For the same compound, the “Mean complete protection time (h) (SEM)” value is 1.8 (0.12) h in assay [5] (5% (w/v) in isopropanol); 3.5 h and 3.5 (0.29) h in assay [5] (10% (w/v) in isopropanol).

Regarding `CC1COC(=O)C2C(C)CCC12` (centres unmarked) [pure dihydronepetalactone, dihydronepetalactone], in assay [6], the “ants that ceased to feed” value is reported as 50-60%.

For the compound `CC1CCC(C(C)(C)O)C(O)C1` (centres unmarked) [PMD, p-menthane-3,8-diol], in assay [2], the “time after which compound became ineffective in repelling landings” value was 6 min, the “Mean Number of Landings (SEM)” value is given as 33.6 (9.21) and the “Mean percentage repellency as calculated from the ANOVA” value is on record as 4.7%. Besides, in assay [3], the “repellency comparison between treatments (ANOVA)” value is listed as “statistically equal in efficacy”, the “Mean Number of Probes (SEM)” value is on record as 47.2 (8.57) and the “Mean percentage repellency as calculated from the ANOVA” value is given as 11.5%.
